Results: US20210260142A1, “COMPOSITIONS BASED ON DIETARY FIBERS AND ESSENTIAL OILS” (Ralco Nutrition, Inc., priority 2020, published 2021)

Experiments:
[1] = test system: Eimeria maxima; assay: Anticoccidial efficacy battery-cage study, E. maxima lesions and oocysts
[2] = test system: Eimeria tenella; assay: Anticoccidial efficacy battery-cage study, E. tenella lesions and oocysts
[3] = test system: Eimeria acervulina; assay: Anticoccidial efficacy battery-cage study, E. acervulina lesions and oocysts
[4] = 3-Oil screening trial, 35 days, cocci stress; assay type: in vivo, Cobb 500 cockerels; conditions: product in feed
From the text: 640 1-day-old Cobb 500 cockerels were wing banded, weighed and randomly assigned to pens on the day of delivery. Each pen was 3 feet wide by 2 feet long by 2 feet tall holding 10 birds each; density was 0.6 sq. ft. per bird. The pens were contained within two battery cages in a single barn, each with battery cage having 4 levels and 8 pens per level for a total of 32 pens per battery. The experimental period was 35 days divided into three (3) feeding stages, starter, grower and finisher. Bird weight, average daily gain (ADG), average daily feed intake (ADFI), feed to gain (FG) and Coccidiosis oocyte counts were determined at each period. This study was performed with a large number of treatments in order to screen a number of possible treatments for further future investigations. […]

[5] = Day 20, Johnson and Reid 1970 scoring, five birds per cage

| SMILES | Lesion Scores Eimeria maxima [1, 5] [days] | Oocysts/Gram Eimeria maxima ([1]; feces Day 19 to Day 20) [bc Oocysts/Gram] | Lesion Scores Eimeria tenella [2, 5] [b] | Oocysts/Gram Eimeria tenella ([2]; feces Day 19 to Day 20) [bc Oocysts/Gram] | Lesion Scores Eimeria acervulina [3, 5] [days] | Oocysts/Gram Eimeria acervulina ([3]; feces Day 19 to Day 20) [cd Oocysts/Gram] | Average bird weights at thirty-five (35) days [4] [grams] |
| --- | --- | --- | --- | --- | --- | --- | --- |
| CC[C@@H](C(=O)[C@@H](C)[C@@H](O)[C@H](C)[C@@H]1O[C@@H]([C@@H](CC)C(=O)O)CC[C@@H]1C)[C@H]1O[C@]2(C=C[C@@H](O)[C@]3(CC[C@@](C)([C@H]4CC[C@](O)(CC)[C@H](C)O4)O3)O2)[C@H](C)C[C@@H]1C [Salinomycin] | 0.7 | 212 | 0.9 | 1843 | 0.8 | 18403 |  |
| O=CC=Cc1ccccc1 [cinnamaldehyde] |  |  |  |  |  |  | 2180.2 |
